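Assay format: 96-well plates, 48-hour exposure. GI50 = concentration required for 50% inhibition of growth.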 Active and inactive are the calls of the source. Rule as the data show it: active = GI50 up to about 1.1 µM and inactive = higher.
Columns and labels:
Assay in all cases: growth of human tumour cells (NCI), 48 h
[1] = test system: 786-0
[2] = test system: OVCAR-4
[3] = test system: RPMI-8226
[4] = test system: SNB-75
[5] = test system: HT-29
[6] = test system: Hs-578T
[7] = test system: SR
[8] = test system: ACHN
[9] = test system: CCRF-CEM
[10] = test system: OVCAR-8
[11] = test system: MCF7
[12] = test system: MDA-MB-231
[13] = test system: A549
[14] = test system: SF-539
[15] = test system: NCI-H522
[16] = test system: CAKI-1
[17] = test system: HOP-62
[18] = test system: UO-31
[19] = test system: DU-145
[20] = test system: SK-MEL-5
[21] = test system: HOP-92
[22] = test system: MDA-MB-435
[23] = test system: SK-OV-3
[24] = test system: SF-295
[25] = test system: IGROV-1
[26] = test system: OVCAR-3
[27] = test system: SK-MEL-2
[28] = test system: KM12
[29] = test system: A498
[30] = test system: TK-10
[31] = test system: SN12C
[32] = test system: HCT-15
[33] = test system: NCI-H23
[34] = test system: BT-549
[35] = test system: MDA-N
[36] = test system: K562
[37] = test system: LOX IMVI
[38] = test system: Malme-3M
[39] = test system: UACC-257
[40] = test system: HCC 2998
[41] = test system: EKVX
[42] = test system: SNB-19
[43] = test system: T47D
[44] = test system: OVCAR-5
[45] = test system: COLO 205
[46] = test system: SW-620
[47] = test system: NCI/ADR-RES
[48] = test system: U-251
[49] = test system: RXF 393
[50] = test system: SK-MEL-28
[51] = test system: SF-268
[52] = test system: PC-3
[53] = test system: NCI-H226
[54] = test system: UACC-62
[55] = test system: M14
[56] = test system: HCT-116
[57] = test system: MOLT-4

O=c1[nH]c(=O)n(C2CC(O)C(CO)O2)c2nc3ccc4cc5ccccc5cc4c3nc12 (configuration not stated)
GI50 [1]: > 100 µM (inactive) | GI50 [2]: 80.7 µM (inactive) | GI50 [3]: > 100 µM (inactive) | GI50 [4]: > 100 µM (inactive) | GI50 [5]: > 100 µM (inactive) | GI50 [6]: > 100 µM (inactive) | GI50 [7]: 69.5 µM (inactive) | GI50 [8]: > 100 µM (inactive) | GI50 [9]: > 100 µM (inactive) | GI50 [10]: > 100 µM (inactive) | GI50 [11]: > 100 µM (inactive) | GI50 [12]: > 100 µM (inactive) | GI50 [13]: > 100 µM (inactive) | GI50 [14]: > 100 µM (inactive) | GI50 [15]: > 100 µM (inactive) | GI50 [16]: > 100 µM (inactive) | GI50 [17]: > 100 µM (inactive) | GI50 [18]: > 100 µM (inactive) | GI50 [19]: > 100 µM (inactive) | GI50 [20]: > 100 µM (inactive) | GI50 [21]: > 100 µM (inactive) | GI50 [22]: > 100 µM (inactive) | GI50 [23]: 53.6 µM (inactive) | GI50 [24]: > 100 µM (inactive) | GI50 [25]: > 100 µM (inactive) | GI50 [26]: > 100 µM (inactive) | GI50 [27]: > 100 µM (inactive) | GI50 [28]: 51.6 µM (inactive) | GI50 [29]: > 100 µM (inactive) | GI50 [30]: > 100 µM (inactive) | GI50 [31]: > 100 µM (inactive) | GI50 [32]: > 100 µM | GI50 [33]: > 100 µM (inactive) | GI50 [34]: > 100 µM (inactive) | GI50 [35]: > 100 µM (inactive) | GI50 [36]: > 100 µM (inactive) | GI50 [37]: 14.8 µM (inactive) | GI50 [38]: > 100 µM (inactive) | GI50 [39]: > 100 µM (inactive) | GI50 [40]: > 100 µM (inactive) | GI50 [41]: > 100 µM (inactive) | GI50 [42]: > 100 µM (inactive) | GI50 [43]: > 100 µM (inactive) | GI50 [44]: > 100 µM (inactive) | GI50 [45]: > 100 µM (inactive) | GI50 [46]: > 100 µM (inactive) | GI50 [47]: > 100 µM (inactive) | GI50 [48]: > 100 µM (inactive) | GI50 [49]: > 100 µM (inactive) | GI50 [50]: > 100 µM (inactive) | GI50 [51]: > 100 µM (inactive) | GI50 [52]: > 100 µM (inactive) | GI50 [53]: > 100 µM (inactive) | GI50 [54]: > 100 µM (inactive) | GI50 [55]: > 100 µM (inactive) | GI50 [56]: > 100 µM (inactive) | GI50 [57]: > 100 µM (inactive)

— ChEMBL document CHEMBL1201862, “PubChem BioAssay data set” (2004)
